Read-outs that look alike come from different tables or passages of the source.
Tests used:
[1] = test system: human dermis derived endothelial cells (HMEC); assay: Fluorescence microscopy of endothelial cells; format: cell-based; details: 1 μM, blue light (420 nm)
Protocol: Endothelial cell lines RF24 and HMEC, were provided by Dr. H. Pannekoek (CLB, Amsterdam, Netherlands) and Dr. D van der Schaft (Maastricht University), respectively.
(§1) Freshly-isolated human umbilical vein endothelial cells (HUVEC), RF24 immortalized HUVEC cells, and human dermis derived endothelial cells (HMEC) were obtained and grown in vitro as described in the Materials and Methods section hereinabove. The cells were then seeded at 10^4 cells/well in a 24-well tissue culture plate. Twenty four hours after seeding, the cells were incubated for 1 hour with 10 or 1 μM of either C-1375, C-1379 or sunitinib. After this incubation, the cells in the 24-well plates were evaluated by fluorescence microscopy. For excitation and detection of imidazoacridinones (IAs) or sunitinib, the microscope was equipped with a filter set (Nikon) characterized by excitation wavelengths of 420±20 nm and emission wavelengths of >470 nm.

SW1573/2R160 cells = assay: XTT cytotoxicity assay with and without illumination
Protocol: Cells were grown in drug-free conditions for one week before any analysis.
(§2) Parental cells and their MDR (multi-drug resistant) sub-lines were seeded in 96-well plates (2×10^4 cells/well in 90 μl growth medium/well). […] Following incubation for 2 hours, the drug-containing medium was replaced by drug-free medium. The cells were then placed on an illuminator plate (Model 460, thin line series, S&S X-Ray Products Inc., Brooklyn, N.Y.) for 1 hour, thereby achieving a light dose of 5 J/cm^2 white light. After illumination, plates were further incubated for an additional 24 hours.
(§3) Cell viability was determined using an XTT (2,3-bis-(2-methoxy-4-nitro-5-sulfophenyl)-2H-tetrazolium-5-carboxanilide) Cell Proliferation Kit (Biological Industries). […] Results are presented as mean values of at least three independent experiments.

[2] = test system: chicken chorioallantoic membrane (CAM) vasculature; assay: Chorioallantoic membrane (CAM) model of photodynamic therapy; format: in vivo; details: 100 μg/embryo i.v.; 420 nm, 20 J/cm^2, 1 minute after injection; 24 hours after treatment
Protocol: Fertilized chicken eggs (Animalco AG) were labeled and transferred into a hatching incubator with a relative air humidity of 65% and a temperature of 37° C. The incubator was equipped with an automatic fan (Savimat). On embryonic development day (EDD) 3, a hole of approximately 3 mm in diameter was opened in the eggshell above the air pouch of the egg and covered with Parafilm® wrapping film (Pechiney) to prevent dehydration and possible infections. The eggs were then returned to the incubator in a static position until use. On EDD 11, the hole in the shell was extended to a diameter of approximately 3 cm in order to provide better access to the chorioallantoic membrane (CAM) during experiments.
Eggs were placed under an Eclipse 600 FN epi-fluorescence microscope equipped with a Plan Apo 4/0.2, working distance 20 objective (Nikon). Microscopic observation and illumination of a region of the CAM was performed as described previously [Lim et al., Photochem Photobiol 2010, 86:397-402; Lim et al., J Med Chem 2010, 53:2865-2874; Nowak-Sliwinska et al., Angiogenesis 2010, 13:281-292]. Illumination was provided by a 100 W high pressure Hg-arc lamp. Light doses were adjusted with neutral density filters and measured with a calibrated Field-Master GS power meter (Coherent Inc.). Fluorescence images were acquired with an F-view II 12-bit monochrome Peltier-cooled digital CCD camera driven with analySIS DOCU software (Soft Imaging System GmbH).
For excitation and detection of imidazoacridinones (IAs) or sunitinib, the microscope was equipped with a filter set (Nikon) characterized by excitation wavelengths of 420±20 nm and emission wavelengths of >470 nm,
After the treatment the eggs were numbered, covered and returned to the incubator. Each treatment group included 5 eggs.
Chorioallantoic membranes (CAMs) were intravenously injecting chorioallantoic membranes with 20 μl of a solution of FITC-dextran (20 kDa, 25 mg/ml). Fluorescence angiography was then performed using light from an Hg-arc lamp and light filters (Nikon) which provided excitation wavelengths of 470±20 nm and emission wavelengths of >520 nm for observing the fluorescence. In order to increase the quality of the recorded angiographs, a light absorber, in the form of India ink, was injected (30 μl) into the extra-embryonic cavity. The purpose of this second injection was to decrease the influence of the CAM auto-fluorescence background, which changes rapidly with time due to the embryo's movement. The India ink was filtered shortly before injection, using a sterile cellulose acetate membrane with 0.2 μm pores (Renner GmbH).
Photodynamic therapy (PDT) was performed at embryo development day (EDD) 11, at which stage the CAM is fully developed and contains a vessel network with a regular capillary plexus. The imidazoacridinones were intravenously injected into the main vessel of the CAM through a 33-gauge needle fitted to a 100 μl syringe (Hamilton), at a concentration of 1 mg/ml and a volume of 100 μl, which corresponds to a dose of 100 μg, or approximately 10 mg/kg embryo body weight.
One minute after injection, a region of the CAM which contained vessels of diameters in a range of 5 to 70 μm was illuminated (420±20 nm) at a light dose of 20 J/cm^2 and an irradiance of […]. […]
The illuminated area was 0.02 cm^2, as delimited by an optical diaphragm. The fluorescence of sunitinib was visible in the vasculature of the CAMs prior to PDT.

A549/K1.5 cells = assay: XTT cytotoxicity assay with and without illumination; format: cell-based, Human; details: A549/K1.5
Protocol: Human non-small cell lung cancer A549 cells and their ABCG2-overexpressing MDR (multi-drug resistant) A549/K1.5 sub-line; ovarian carcinoma cell line 2008 and its stable MRP1-transfectant 2008/MRP1; and human non-small lung cancer cell line SW1573 and its ABCB1-overexpressing subline SW1573/2R160) were maintained in RPMI-1640 medium supplemented with 10% fetal bovine serum, 2 mM glutamine, 100 μg/ml penicillin and streptomycin (Biological Industries, Beth-Haemek, Israel) in a humid atmosphere containing 5% CO2 at 37° C.
as §2
(§4) Cell viability was determined using an XTT (2,3-bis-(2-methoxy-4-nitro-5-sulfophenyl)-2H-tetrazolium-5-carboxanilide) Cell Proliferation Kit (Biological Industries). The drug concentrations required to inhibit cell growth by 50% (i.e., IC50 values) were determined from the cell survival curves in the absence and in the presence of illumination. Results are presented as mean values of at least three independent experiments.

[3] = test system: human umbilical vein endothelial cells (HUVEC); assay: Fluorescence microscopy of endothelial cells; format: cell-based; details: 1 μM
Protocol: Human umbilical vein endothelial cells (HUVEC) were isolated by perfusion of umbilical veins (Department of Obstetrics and Gynaecology, VU University Medical Center) with trypsin. Cells were routinely cultured in RPMI-1640 medium (Life Technologies, Breda, The Netherlands) supplemented with 10% heat-inactivated human serum, 10% heat-inactivated FCS, 2 mM L-glutamine (Life Technologies, Netherlands), […] streptomycin and 50 U/ml penicillin (ICN Biomedicals) in a 0.2% gelatin coated 75 cm^2 tissue culture flask at 37° C. in an atmosphere with 5% CO2. HUVEC used for experiments were cultured without addition of extra growth factors and used for experiments between passage 2 and 4.
as §1, with “For excitation and detection of imidazoacridinones (IAs) or sunitinib, the microscope was equipped with a filter set (Nikon) characterized by excitation wavelengths of 420±20 nm and emission wavelengths of >470 nm.” left out

A549 cells = assay: XTT cytotoxicity assay with and without illumination
Protocol: as §2, §3

2008 cells = assay: as above
Protocol: as §2, §3

SW1573 cells = assay: as above
Protocol: as §2, §3

[4] = test system: MDR SW/2R160 and 2008/MRP1 cells; assay: XTT cytotoxicity, result stated jointly for MDR cells; format: cell-based
Protocol: as §2, §4

2008/MRP1 cells = assay: XTT cytotoxicity assay with and without illumination
Protocol: as §2, §3

[5] = Absorption, emission and excitation spectra; format: physicochemical; details: aqueous 0.9% NaCl
Protocol: Stock solutions containing sunitinib or the imidazoacridinones (IAs) C-1375 and C-1379 in 100% dimethyl sulfoxide were diluted with aqueous 0.9% NaCl solution under continuous stirring. Absorption spectra were recorded with a two-beam Cary 500 UV-VIS-NIR spectrophotometer (Varian) in 1 cm long Suprasil® quartz cuvettes (Hellma), at an average scan speed of 600 nm/minute, at 20° C. The steady state emission and excitation spectra were recorded with an LS 50B luminescence spectrometer (Perkin-Elmer).

COc1ccc2c(c1)c(=O)c1c(NCCCN(C)C)ccc3nc(C)n2c31 [C-1375]
photodestruction of lysosomes [1]: lysosome destruction and accumulation of C-1375 in the nuclei also occurred | Fold sensitization (SW1573/2R160 cells; control vs illumination): 13 | C-1375 LD50 Illumination (SW1573/2R160 cells; illumination): 330 ± 56 nM | Survival at 1000 nM Illumination (SW1573/2R160 cells; illumination): 24 ± 4% | C-1375 LD50 Control (SW1573/2R160 cells; no illumination): 4.384 ± 0.125 µM | Survival at 1000 nM Control (SW1573/2R160 cells; no illumination): 74 ± 3% | vascular effect in illuminated area [2]: vaso-occlusion within the illuminated area | Fold sensitization (A549/K1.5 cells; control vs illumination): 10 | LD50 Control (A549/K1.5 cells; no illumination): 5.264 ± 0.877 µM | Survival at 3000 nM Control (A549/K1.5 cells; no illumination): 70 ± 5% | LD50 Illumination (A549/K1.5 cells; white light 1 hour (5 J/cm^2)): 541 ± 56 nM | Survival at 3000 nM Illumination (A549/K1.5 cells; white light illumination): 3 ± 0.6% | photodestruction of lysosomes ([3]; approximately 2 minutes of illumination): most of the lysosomes had disappeared | photodestruction of lysosomes ([3]; illumination 1 minute (420 nm)): many lysosomes were destroyed | Fold sensitization (A549 cells; control vs illumination): 14 | Survival at 3000 nM Control (A549 cells; no illumination): 50 ± 3% | LD50 Control (A549 cells; no illumination, 2 h drug, XTT 24 h later): 3.054 ± 0.26 µM | LD50 Illumination (A549 cells; white light 1 hour (5 J/cm^2)): 212 ± 29 nM | Survival at 3000 nM Illumination (A549 cells; white light illumination): 3 ± 2% | Fold sensitization (2008 cells; control vs illumination): 36 | C-1375 LD50 Illumination (2008 cells; illumination): 90 ± 9 nM | Survival at 1000 nM Illumination (2008 cells; illumination): 11 ± 4% | C-1375 LD50 Control (2008 cells; no illumination): 3.28 ± 0.345 µM | Survival at 1000 nM Control (2008 cells; no illumination): 72 ± 0.8% | Fold sensitization (SW1573 cells; control vs illumination): 24 | C-1375 LD50 Illumination (SW1573 cells; illumination): 233 ± 5 nM | Survival at 1000 nM Illumination (SW1573 cells; illumination): 11 ± 2% | C-1375 LD50 Control (SW1573 cells; no illumination): 5.535 ± 0.596 µM | Survival at 1000 nM Control (SW1573 cells; no illumination): 68 ± 6% | IC50 ([4]; illumination, read-out: IC50 with illumination): 90 to 330 nM | IC50 ([4]; no illumination, read-out: IC50 in the absence of illumination): 3300 to 5500 nM | Fold sensitization (2008/MRP1 cells; control vs illumination): 51 | C-1375 LD50 Illumination (2008/MRP1 cells; illumination): 101 ± 0.1 nM | Survival at 1000 nM Illumination (2008/MRP1 cells; illumination): 13 ± 3% | C-1375 LD50 Control (2008/MRP1 cells; no illumination): 5.115 ± 0.889 µM | Survival at 1000 nM Control (2008/MRP1 cells; no illumination): 80 ± 2% | Peak absorption [5]: 444 nm | Peak emission [5]: 553 nm | Peak excitation [5]: 449 nm

From patent publication US8630703B2, “Treatment utilizing hydrophobic weak bases chemotherapeutic agents and illumination” (Technion Research & Development Foundation Limited, priority 2011, dated 2014)
